# Results reported in patent US20260091082A1, “CYCLIC PEPTIDE DERIVATIVE COMPOSITION FOR TREATING OR PREVENTING EYE DISEASE” (DKS Co. Ltd., priority 2022, published 2026).
# “And” between values parts separate entries of the source, which are not always exact repeats. Equal values may be shown once.
# System: anterior chamber aqueous humor pressure load rat model
# Experiment: Retinal thickness (IPL, INL, ONL) in retinal damage model induced by anterior chamber aqueous humor pressure load
# Assay type: in vivo, Rat; Slc: SD
# Settings: for Thickness of INL (μm) / Thickness of IPL (μm) / Thickness of ONL (μm): 10 mg/mL intravenous (1 mL/kg once) about 30 minutes before ischemic load (test group 4), 14 days after model creation, mean ± S.E., 10 animals
# Experimental: • Name: Compound 9 • Source: Synthesized in the above Examples • Used amount: 0.4 mL (50 mg/mL solution) • Storage conditions: Freezing, light shielding
# Method for preparing test substance (1 mg/mL): A high concentration solution prepared at 50 mg/mL was diluted 50 times with a medium to prepare a 1 mg/mL administration solution.
# • Name: MK-801 • Distributor: SIGMA-ALDRICH • Use amount: 0.0501 g • Storage condition: refrigerated (2° C. to 8° C.)
# Method for preparing positive control substance (10 mg/mL): 0.0501 g was weighed out and made up to a total volume of 5 mL with a control substance (physiological saline).
# • Species and strains: Rat; Slc: SD • Number of animals on arrival and sex: 50 males • Age in weeks at arrival: 6 weeks old • Body weight range at arrival: 147.2 to 170.0 g • Source: Japan SLC, Inc.
# Grouping was performed two days before the first creation of the retinal damage model induced by an anterior chamber aqueous humor pressure load. Using the daily body weight as an index, stratified random allocation was performed using SAS (Ver. 9.3, SAS Institute Japan Ltd.) and EXSUS (Ver. 8.0, CAC Croit Corporation) so that an average value of the body weights of each group was approximately uniform.
# • Administration route: Eyedrop administration, intravenous administration • Administration method (eyedrop): Eyedrop administration was performed on a treated eye (right eye) of a rat using a micropipette 4 times a day (at intervals of 1.5 hours or more). • Administration method (intravenous): The amount of administration solution, calculated from the body weight on the day of administration, was administered from the tail vein using a syringe and an injection needle about 30 minutes before ischemic load. • Time of administration: Administration was performed according to the following schedule.
# 1. 10 mg/kg xylazine hydrochloride was intramuscularly administered on the model creation day (day 0). A rat was placed in an anesthesia box and subjected to general anesthesia with isoflurane (5%, oxygen:nitrous oxide=1:3). When anesthesia was effective, the rat was taken out of the anesthesia box, an inhalation anesthetic mask was worn, and anesthesia was maintained with isoflurane (1% to 5%, oxygen nitrous oxide=1:3).
# 2. The body temperature was maintained at 37° C. with a warming mat, and a mydrin P ophthalmic solution was instilled in the right eye (treated eye) of the rat to dilate the pupil, then the cravit ophthalmic solution 1.5% (Santen Pharmaceutical Co., Ltd.) was instilled.
# 3. A bottle of an IV bag containing physiological saline was previously suspended so that a water surface was 155 cm (100 mmHg or more) higher than the eye of the rat. The IV bag was connected to a pediatric infusion set (Terumo Corporation), a 27 G injection needle thereof was inserted into and fixed to the anterior chamber while slightly dripping the liquid from a needle tip. The model was created in the light phase (6:00 to 18:00) in consideration of the diurnal variation of the intraocular pressure.
# 4. After the needle was inserted into the anterior chamber, pressure (100 mmHg or more) was loaded and maintained in the anterior chamber by associating the reflux system.
# 5. After an ischemic load for 45 minutes, the injection needle and the like were removed, the inhalation anesthetic mask was removed, and the rat was sufficiently woken up under a warming mat, and then returned to the cage.
# 6. For 2 days after surgery, 10 mg/kg xylazine hydrochloride was intramuscularly administered as an analgesic for the purpose of alleviating the pain after the treatment.
# 1. Fourteen days after model creation, general anesthesia was performed with isoflurane (5%, oxygen:nitrous oxide=1:3), euthanasia was then performed by exsanguination, a suture was placed as a marker at the 12 o'clock position of the ocular conjunctiva, and eyeball enucleation was performed.
# 2. […]
# [1] = 10 mg/mL intravenous, right eye, 600 μm from optic disk, mean per animal
# [2] = 10 mg/mL intravenous, right eye, 900 μm from optic disk, individual measurements per animal
# [3] = 10 mg/mL intravenous, right eye, 900 μm from optic disk, mean per animal
# [4] = MK-801, 10 mg/mL intravenous, right eye, individual animals 401-410
# [5] = test group 4 (positive control, intravenous)
smiles,measurement,setting,value
"C[C@]12N[C@H](Cc3ccccc31)c1ccccc12 [MK-801, reference compound]","Thickness of IPL (μm), Distance from Optic Disk 600 μm","10 mg/mL intravenous, right eye, 600 μm from optic disk, individual measurements per animal",51.638 μm and 52.865 μm and 43.668 μm and 44.847 μm and 43.645 μm and 46.040 μm and 48.131 μm and 48.555 μm and 40.323 μm and 42.059 μm and 40.708 μm and 38.245 μm and 23.016 μm and 30.373 μm and 47.349 μm and 49.055 μm and 51.482 μm and 47.356 μm and 46.081 μm and 48.016 μm and 49.876 μm and 42.369 μm and 44.364 μm and 47.408 μm and 44.018 μm and 42.681 μm and 28.572 μm and 45.620 μm and 44.033 μm and 47.914 μm
same,"Thickness of INL (μm), Distance from Optic Disk 600 μm, Mean",[1],37.378 μm and 28.006 μm and 30.469 μm and 44.484 μm and 31.392 μm and 28.027 μm and 18.807 μm and 31.969 μm and 25.534 μm and 35.604 μm
same,"Thickness of IPL (μm), Distance from Optic Disk 600 μm, Mean",[1],51.460 μm and 43.628 μm and 44.683 μm and 48.031 μm and 42.133 μm and 40.545 μm and 27.320 μm and 47.341 μm and 47.624 μm and 47.337 μm
same,"Thickness of INL (μm), Distance from Optic Disk 900 μm",[2],38.448 μm and 33.242 μm and 40.306 μm and 28.655 μm and 32.584 μm and 30.110 μm and 27.670 μm and 26.653 μm and 27.205 μm and 46.278 μm and 47.196 μm and 49.419 μm and 26.256 μm and 28.272 μm and 28.572 μm and 28.638 μm and 29.653 μm and 28.909 μm and 18.887 μm and 19.638 μm and 20.068 μm and 28.079 μm and 29.083 μm and 31.101 μm and 27.776 μm and 27.037 μm and 27.422 μm and 33.221 μm and 42.252 μm and 40.931 μm
same,"Thickness of IPL (μm), Distance from Optic Disk 900 μm",[2],53.305 μm and 54.992 μm and 50.505 μm and 49.780 μm and 48.950 μm and 49.327 μm and 45.307 μm and 46.968 μm and 47.454 μm and 59.185 μm and 57.507 μm and 59.952 μm and 47.370 μm and 46.144 μm and 43.062 μm and 44.289 μm and 45.534 μm and 44.647 μm and 26.506 μm and 30.220 μm and 35.348 μm and 47.148 μm and 37.774 μm and 39.021 μm and 47.795 μm and 46.694 μm and 44.145 μm and 52.722 μm and 49.687 μm and 46.942 μm
same,"Thickness of INL (μm), Distance from Optic Disk 900 μm, Mean",[3],37.332 μm and 30.450 μm and 27.176 μm and 47.631 μm and 27.700 μm and 29.067 μm and 19.531 μm and 29.421 μm and 27.412 μm and 38.801 μm
same,"Thickness of IPL (μm), Distance from Optic Disk 900 μm, Mean",[3],52.934 μm and 49.352 μm and 46.576 μm and 58.881 μm and 45.525 μm and 44.823 μm and 30.691 μm and 41.314 μm and 46.211 μm and 49.784 μm
same,Thickness of INL (μm),300 μm from optic disk,28.96±1.66 μm
same,Thickness of IPL (μm),300 μm from optic disk,38.05±1.38 μm
same,Thickness of ONL (μm),300 μm from optic disk,42.08±1.66 μm
same,Thickness of INL (μm),600 μm from optic disk,31.17±2.21 μm
same,Thickness of IPL (μm),600 μm from optic disk,44.01±2.11 μm
same,Thickness of ONL (μm),600 μm from optic disk,45.28±1.75 μm
same,Thickness of INL (μm),900 μm from optic disk,31.45±2.48 μm
same,Thickness of IPL (μm),900 μm from optic disk,46.61±2.34 μm
same,Thickness of ONL (μm),900 μm from optic disk,45.02±1.52 μm
same,"Thickness of ONL, distance from optic disk 300 μm (single measurement)",[4],49.987 μm and 47.894 μm and 44.120 μm and 44.371 μm and 45.163 μm and 41.953 μm (2×) and 41.468 μm and 43.326 μm and 44.787 μm and 50.806 μm and 50.609 μm and 36.032 μm and 35.996 μm and 37.658 μm and 33.339 μm and 36.442 μm and 39.921 μm and 32.751 μm and 35.889 μm and 35.090 μm and 45.922 μm and 43.490 μm and 44.532 μm and 39.787 μm and 38.794 μm and 36.469 μm and 48.975 μm and 47.935 μm and 47.053 μm
same,"Thickness of ONL, distance from optic disk 600 μm (single measurement)",[4],54.862 μm and 55.200 μm and 39.132 μm and 42.030 μm and 46.694 μm and 48.910 μm and 53.036 μm and 51.036 μm and 37.502 μm and 37.761 μm and 41.216 μm and 41.515 μm and 39.682 μm and 37.237 μm and 46.859 μm and 44.945 μm and 44.217 μm and 44.145 μm and 50.162 μm and 48.259 μm and 48.902 μm and 41.131 μm and 49.194 μm and 53.714 μm and 39.721 μm and 42.784 μm and 37.125 μm and 46.818 μm and 44.498 μm and 50.125 μm
same,"Thickness of ONL, distance from optic disk 900 μm (single measurement)",[4],50.646 μm and 51.429 μm and 55.123 μm and 43.100 μm and 44.611 μm and 41.813 μm and 43.865 μm and 45.150 μm and 42.936 μm and 50.620 μm and 52.065 μm and 51.575 μm and 38.927 μm and 44.018 μm and 42.314 μm and 45.648 μm and 44.179 μm and 43.513 μm and 35.404 μm and 34.065 μm and 37.439 μm and 46.755 μm and 42.208 μm and 44.217 μm and 44.685 μm and 43.759 μm and 46.364 μm and 47.690 μm and 47.148 μm and 49.406 μm
same,"Inner nuclear layer (INL) thickness compared with the control group, in words",[5],no obvious change was observed
same,"Outer nuclear layer (ONL) thickness compared with the control group, in words",[5],statistically significant differences were observed at measurement sites between 600 to 900 μm from the optic disk
same,"Inner plexiform layer (IPL) thickness compared with the control group, in words","test group 4 (positive control, intravenous), 300 to 900 μm from the optic disk",statistically significant suppression of retinal damage was shown at all measurement sites
